Legend:
salivary acinar cells [1] = settings: cited from earlier work
salivary acinar cells [2] = test: Activated caspase-3 staining of irradiated salivary glands (apoptotic cells); assay type: in vivo; settings: pretreatment of mice with IGF1
Description: Activated caspase-3 staining. Salivary glands were removed at various time points post-irradiation, fixed in 10% neutral buffered formalin, and then embedded in paraffin. Slides were stained for activated caspase-3 (Cell Signaling #9661; Beverly, Mass.) as previously described (Humphries et al., 2006). Cell counts were performed on a minimum of five fields of view per slide from three mice (total cells counted ranged from 1800-2500 per mouse).

FVB mice = test: Salivary flow rate after head and neck γ-irradiation (carbachol-stimulated saliva collection); assay type: in vivo
Description: FIG. 11—Rescue of salivary flow rates 3 days after single γ-irradiation exposure in Myr-Akt1 mice. Four-week old female FVB and myr-Akt1 mice were exposed to 1, 2, or 5Gy γ-irradiation. Three days after irradiation total saliva was collected (over a five-minute period) following carbachol injection. Statistical analysis was performed using Student's t-test in Microsoft Excel.
(§1) FIGS. 12A-C—IGF1 activation of Akt in vivo and rescue of salivary flow rates 3 days after single γ-irradiation exposure. (FIG. 12A) FVB mice received an injection of 1, 5, 10, or 50 ng/ml recombinant IGF1. Tissue lysates were collected for immunoblotting five minutes after injection and membranes were probed for activation of Akt using a phosphorylation specific antibody. (FIG. 12B) FVB mice received an injection of 5 μg/ml recombinant IGF1 and tissue lysates were collected for immunoblotting 0, 5, 10 or 30 min after injection. Membranes were probed for activated Akt as described in FIG. 12A. Membranes were stripped and re-probed with a total antibody against ERK1/2 as a loading control in both A and B. (FIG. 12C) Four-week old female FVB mice were injected with 5 μg/ml recombinant IGF1 immediately prior to treatment with 1Gy γ-irradiation. Total saliva was collected following carbachol injection as described in FIG. 11 three days after radiation exposure. For Untreated, N=10; for IGF1, N=5; for 1 Gy, N=10, and for 1 Gy+IGF1, N=7. Statistical analysis was performed using Student's t-test in Microsoft Excel.
FIG. 13—Rescue of salivary flow rates 30 days after single γ-irradiation exposure by Myr-Akt1 or injection with IGF1. Four-week old female FVB, myr-Akt1 and FVB mice injected with 5 μg/ml recombinant IGF1 were exposed to 1Gy γ-irradiation. IGF1 injections were performed immediately prior to radiation exposure as described in FIGS. 12A-C. Thirty days after exposure to γ-irradiation total saliva was collected following carbachol injection as described in FIG. 11. For unirradiated, untreated, N=8; for unirradiated myr-Akt1, N=8; for unirradiated IGF1 injected, N=8; for 1 Gy irradiated FVB, N=8, for myr-Akt1 riiadiated with 1 Gy, N=6, for FVB that received IGF1 and I Gy, N=6. Statistical analysis was performed using multiple comparison testing in the SAS system.
γ-irradiation treatment. For in vivo experiments, four-week old female FVB and myr-Akt1 transgenic mice were anesthetized with avertin (0.4-0.6 mg/gm, IP) and the head and neck region was exposed to ionizing radiation using a RS 2000 Biological Irradiator (Humphries et al., 2006). The rest of the body was shielded with 6 mm lead foil and sheets to avoid systemic effects of γ-irradiation. […] For IGF1 injections, mice were anesthetized with avertin and tails were warmed in water to allow dilation of blood vessels. […]

Akt = test: IGF1 activation of endogenous Akt in the salivary gland after tail vein injection (anti-phospho-Akt immunoblot); assay type: in vivo, mice; settings: for activation of Akt (immunoblotting with anti-phospho-Akt (threonine^473) antibody): salivary gland
Description: as §1
γ-irradiation treatment. For in vivo experiments, four-week old female FVB and myr-Akt1 transgenic mice were anesthetized with avertin (0.4-0.6 mg/gm, IP) and the head and neck region was exposed to ionizing radiation using a RS 2000 Biological Irradiator (Humphries et al., 2006). The rest of the body was shielded with 6 mm lead foil and sheets to avoid systemic effects of γ-irradiation. […] For IGF1 injections, mice were anesthetized with avertin and tails were warmed in water to allow dilation of blood vessels. Mice were injected with a total volume of 100 μl of IGF1 diluted in sterile PBS and immediately placed into the radiation chamber.
Stimulation of cells with both IGF1 and EGF produced a synergistic activation of Akt and suppression of apoptosis (Limesand et al., 2003). […] Mice were injected with 1, 5, 10, or 50 μg recombinant IGF1 and the activation of Akt was examined in the salivary gland five minutes after injection.
The inventors also determined the kinetics with which Akt was activated following injection of mice with 5 μg IGF1. Salivary glands were removed at 5, 10, and 30 minutes post-injection, tissue lysates prepared, and the activation of Akt examined by immunoblotting with anti-phospho-Akt ([…]) antibody (FIG. 12B). […] Future studies are needed to determine whether Akt remains activated for longer periods of time.

[3] = system: primary salivary acinar cells; test: Induction of apoptosis in primary salivary acinar cells (caspase-3 activity); assay type: cell-based, mouse
Description: In FIG. 3A, all adherent and nonadherent primary parotid acinar cells were collected and lysed in caspase lysis buffer (BioMol QuantiZyme Colormetric Assay kit) and 15 μg of cell lysate was used to analyze the level of enzyme activity for each sample in quadruplicate. The ability of the enzyme to cleave a chromogenic substrate was read at A405 every ten minutes for seven hours and the -fold increase relative to untreated parotid cells is plotted. […] In FIG. 3B, primary submandibular acinar cells were collected in caspase lysis buffer as described above and the -fold increase relative to untreated submandibular cells is plotted. […] Graphs of caspase activity represent all data points collected from five independent experiments and Student's t-test p values were calculated using Microsoft Excel comparing two different treatment groups.
Generation and cultivation of primary salivary acinar cells. Primary salivary acinar cells were prepared from 4-5 week old female FVB or myr-Akt1 transgenic mice. […]
Induction and quantitation of apoptosis. […] Activation of caspase 3 was quantitated using BioMol QuantiZyme Colormetric Assay kit (Plymouth Meeting, Pa.). […] Caspase-3 activity in 15 μg of cellular lysate was measured by the cleavage of Ac-DEVD-pNA substrate and absorbance at A405 was quantitated in a microtiter plate reader (Molecular Devices) at 10-minute intervals for 7 hrs.

ATM and Chk1 = test: Phosphorylation of ATM, Chk1 and p53 in myr-Akt1 primary salivary acinar cells (immunoblot); assay type: cell-based, mouse; settings: with or without siRNA that targeted MDM2
Description: In FIG. 9A, primary salivary acinar cells isolated from myr-Akt1 mice were transfected with various control or MDM2 specific siRNA molecules. Cell lysates were collected 24-72 hrs after transfection and immunoblotted with an anti-MDM2 antibody (top panel) or anti-p53 (DO12, middle panel). […] In lanes 6 and 7, primary salivary acinar cells isolated from myr-Akt1 mice were transfected with siRNA molecules targeting MDM2 for 48 hrs.
Immunoblotting. Tissues were lysed in RIPA (150 mM NaCl, 50 mM Tris, pH 7.4, 2 mM EGTA, 1% Triton X-100, 0.25% sodium deoxycholate) supplemented with protease inhibitor cocktail (Sigma Chemical Company, St. Louis, Mo.), 100 μg/ml phenylmethylsulfonyl fluoride, and 100 U/ml aprotinin (Pierce Chemical Company, Rockford, Ill.). […] Primary salivary acinar cells were lysed in JNK lysis buffer (25 mM HEPES, pH 7.5, 20 mM β-glycerophosphate, 0.1 mM sodium orthovandadate, 0.1% Triton X-100, 0.3M NaCl, 1.5 mM MgCl2, 0.2 mM EDTA, 0.5 mM dithiothreitol, and 10 mM NaF) supplemented with aprotinin (4 μg/ml), Prefebloc (0.5 mg/ml), and leupeptin (2 μg/ml) (Pierce Chemical Company) and 1 mM sodium orthovandate, and the lysates clarified by centrifugation at 4° C. for 30 min at 13,000 rpm in a refrigerated Savant microcentrifuge (Anderson et al., 1999). Protein concentrations were determined using the BCA Protein Assay Kit (Pierce Chemical Company). […]

| Compound | activation of Akt (salivary acinar cells [1]) | apoptosis induced by etoposide (salivary acinar cells [1]) | number of apoptotic cells after irradiation (salivary acinar cells [2]) | salivary flow rate, IGF1 alone (FVB mice; 5 μg IGF1, unirradiated mice, three days following injection) | salivary flow rate versus unirradiated FVB control mice (FVB mice; IGF1 injected, unirradiated, thirty-day time point) | irradiation-induced reduction in salivary flow rate (FVB mice; single dose of 5 μg recombinant IGF1 immediately prior to 1 Gy, three days after exposure) | decrease in salivary flow rate compared to controls (FVB mice; single dose of IGF1 prior to 1 Gy γ-irradiation, 30 days after exposure) | phosphorylated Akt thirty minutes following administration (Akt; 5 μg IGF1, salivary gland) | time of maximal activation of Akt after injection (Akt; 5 μg IGF1, salivary glands removed at 5, 10 and 30 minutes) | activation of Akt (immunoblotting with anti-phospho-Akt (threonine^473) antibody) (Akt; five minutes after injection of 1 μg and 5 μg IGF1) | activation of Akt (immunoblotting with anti-phospho-Akt (threonine^473) antibody) (Akt; five minutes after injection of 10 and 50 μg IGF1 per mouse) | apoptosis of salivary acinar cells ([3]; cells from FVB control mice) | apoptosis (caspase-3 activation) ([3]; myr-Akt1 salivary acinar cells, 18 hrs after treatment) | phosphorylation of ATM at serine^1981 (ATM and Chk1) |
| --- | --- | --- | --- | --- | --- | --- | --- | --- | --- | --- | --- | --- | --- | --- |
| IGF1: recombinant IGF1, activator of the Akt pathway, injected into the tail vein of mice | induces activation of Akt | suppresses apoptosis | significantly decreases the number of apoptotic cells | had no effect | not a statistical difference | completely suppressed | no decrease in salivary flow rate | could still be detected | five | results in the activation of Akt | did not result in the activation of Akt |  |  |  |
| COc1cc([C@@H]2c3cc4c(cc3[C@@H](O[C@@H]3O[C@@H]5CO[C@@H](C)O[C@H]5[C@H](O)[C@H]3O)[C@H]3COC(=O)[C@H]23)OCO4)cc(OC)c1O [etoposide] |  |  |  |  |  |  |  |  |  |  |  | induce apoptosis | did induce some apoptosis | resulted in the phosphorylation of ATM |
